In PubChem BioAssay (NCI):
Values joined by “and” are separate entries in the source; they are usually repeats but may differ in a detail not shown here. Identical values can stand only once.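 Step 1: Grow cells in 96-well plates. Step 2: Expose to compound for 48 hours at 5 concentrations. Step 3: Interpolate endpoints linearly; if unreached, use highest concentration. The concentration for full growth arrest is given as TGI.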

Tests used:
Test in all cases: DTP human tumour cell line panel, 48 h
COLO 205 colon = test system: COLO 205 colon
UACC-62 melanoma = test system: UACC-62 melanoma
KM12 colon = test system: KM12 colon
CCRF-CEM leukemia = test system: CCRF-CEM leukemia
SN12C renal = test system: SN12C renal
SK-OV-3 ovarian = test system: SK-OV-3 ovarian
HT29 colon = test system: HT29 colon
MDA-N = test system: MDA-N
EKVX NSCLC = test system: EKVX NSCLC
K-562 leukemia = test system: K-562 leukemia
SNB-19 CNS = test system: SNB-19 CNS
A498 renal = test system: A498 renal

| Structure (SMILES) | TGI (COLO 205 colon) | TGI (UACC-62 melanoma) | TGI (KM12 colon) | TGI (CCRF-CEM leukemia) | TGI (SN12C renal) | TGI (SK-OV-3 ovarian) | TGI (HT29 colon) | TGI (MDA-N) | TGI (EKVX NSCLC) | TGI (K-562 leukemia) | TGI (SNB-19 CNS) | TGI (A498 renal) |
| --- | --- | --- | --- | --- | --- | --- | --- | --- | --- | --- | --- | --- |
| CC1=C(SCCO)C(=O)c2ccccc2C1=O | 24.1 µM | 31.7 µM | 26.8 µM | > 100 µM | 29.7 µM | 29.6 µM | 38.7 µM | 15.6 µM | 27.5 µM | > 100 µM | 79.6 µM | 30.6 µM |
| CCCCC(=O)c1c(O)ccc2c(C)cc(=O)oc12 | > 100 µM | > 100 µM | > 100 µM | > 100 µM | > 100 µM | – | > 100 µM | > 100 µM | > 100 µM | > 100 µM | > 100 µM | > 100 µM |
| CC[C@@]1(O)C[C@H](OC2CC(N(C)C)C(OC3CC(O)C(OC4CCC(=O)C(C)O4)C(C)O3)C(C)O2)c2c(cc3c(c2O)C(=O)c2c(O)cccc2C3=O)C1C(=O)OC (some centres not stated) | – | 0.26 µM and 0.527 µM | – | 0.116 µM and 1.02 µM | – | 6 µM and 12.7 µM | 1.42 µM | 0.149 µM | 3.02 µM and 1.35 µM | – | – | 0.213 µM |
| C1=CC=C2NCCc3cccc(c3)CCNC3=CC=CC=CC3=NCCCCCCN=C2C=C1 | 38.8 µM | 50.7 µM | 47.3 µM | > 100 µM | > 100 µM | 70.6 µM | > 100 µM | – | > 100 µM | > 100 µM | > 100 µM | – |
| [C-]#[N+]C(=C\c1ccc(O)cc1)/C(=C/c1ccc(O)cc1)[N+]#[C-] | 56.6 µM | 3.7 µM | > 22.3 µM | 6.55 µM | 6.37 µM | > 100 µM | > 73.8 µM | 3.35 µM | > 100 µM | > 100 µM | > 100 µM | > 24.8 µM |
| N#Cc1ccc([N+](=O)[O-])cc1NC(N)=S | > 100 µM | – | > 100 µM | – | > 100 µM | > 100 µM | > 100 µM | – | > 100 µM | – | > 100 µM | > 100 µM |
| O=S(=O)(O)c1cc(S(=O)(=O)O)c2c(N=Nc3ccc(S(=O)(=O)O)c4ccccc34)c(O)ccc2c1 | > 100 µM | > 100 µM | > 100 µM | > 100 µM | > 100 µM | > 100 µM | > 100 µM | > 100 µM | > 100 µM | > 100 µM | > 100 µM | – |
| CC(=O)OCCCCN1C(=O)CSc2ccccc21 | – | > 100 µM | > 100 µM | > 100 µM | > 100 µM | > 100 µM | – | > 100 µM | > 100 µM | – | > 100 µM | > 100 µM |
| CC(C)C1=CC2=CC[C@@H]3[C@](C)(CCC[C@@]3(C)C(=O)O)[C@H]2CC1 | 71.9 µM | 68.3 µM | > 100 µM | > 100 µM | > 100 µM | > 100 µM | 45.9 µM | – | > 89.3 µM | > 100 µM | > 100 µM | > 100 µM |
| CN(C)c1ccc(C2CC(=O)CC(c3ccc(N(C)C)cc3)C23C(=O)NC(=S)NC3=O)cc1 (configuration not stated) | > 100 µM | > 100 µM | > 100 µM | > 100 µM | > 100 µM | > 100 µM | > 100 µM | > 100 µM | > 100 µM | > 100 µM | > 100 µM | > 100 µM |
| C=CCn1c(=O)c(Br)nn(CCOCP(=O)(OCC)OCC)c1=O | > 100 µM | – | > 100 µM | > 100 µM | > 100 µM | – | – | > 100 µM | > 100 µM | > 100 µM | > 100 µM | > 100 µM |
